# What was measured:
# [1] = test system: multiple myeloma patients; conditions: high-dose (25 mg per day) cohort; cited from earlier work
# Primary human T cells = assay: Cytokine production and degranulation of CDK4 TCR T cells with Zap70-PD1-degron CRASH-IT switch co-cultured with NKIRTIL006 melanoma cells, thalidomide titration; format: cell-based; conditions: as compared to single hybrid, dual zinc finger prior art degron; IFNγ, IL2, TNFα, LAMP-1
# Text: FIG. 1: Sensitivity of zinc finger degrons to IMiD can be improved by alteration of the second zinc finger sequence. (A) Schematic representation of a panel of zinc finger degrons containing the ZFP91 ZF4 beta hairpin and IKZF1 ZF2 alpha helix as a hybrid first zinc finger. […] (B-E) Primary human T cells modified with the HLA class I restricted CDK4 TCR plus a Zap70-PD1-degron CRASH-IT switch, in which the degron sequence is selected from (A), were pretreated with indicated concentrations of thalidomide. Data depict intracellular IFNγ, IL2, TNFα, and cell surface LAMP1 expression of CDK4 TCR+, EGFP high, CD8+ T cells upon co-culture with NKIRTIL006 melanoma cells in the continued presence of indicated concentrations of thalidomide. Error bars represent standard deviation (n=2). Data are representative of two independent experiments.
# To our knowledge, the possibility of using a hybrid zinc finger as the second zinc finger as a means to improve the overall sensitivity of the dual zinc finger degron system was not tested before. To investigate whether the second zinc finger (IKZF1 ZF3) of the single hybrid, dual zinc finger prior art degron can be replaced with other zinc finger sequences while preserving or improving sensitivity towards IMiDs, we created a panel of CRASH-IT switches containing the zinc finger degrons shown in FIG. 1. […]
# [2] = target: IMID/CRBN E3 ligase complex (Homo sapiens, UniProt Q96SW2); conditions: as compared to non-hybrid ZFP91 ZF4 and IKZF1 ZF2 zinc finger degrons; cited from earlier work
# IMID/CRBN E3 ligase complex, sequence (Q96SW2 whole entry, one chain of several): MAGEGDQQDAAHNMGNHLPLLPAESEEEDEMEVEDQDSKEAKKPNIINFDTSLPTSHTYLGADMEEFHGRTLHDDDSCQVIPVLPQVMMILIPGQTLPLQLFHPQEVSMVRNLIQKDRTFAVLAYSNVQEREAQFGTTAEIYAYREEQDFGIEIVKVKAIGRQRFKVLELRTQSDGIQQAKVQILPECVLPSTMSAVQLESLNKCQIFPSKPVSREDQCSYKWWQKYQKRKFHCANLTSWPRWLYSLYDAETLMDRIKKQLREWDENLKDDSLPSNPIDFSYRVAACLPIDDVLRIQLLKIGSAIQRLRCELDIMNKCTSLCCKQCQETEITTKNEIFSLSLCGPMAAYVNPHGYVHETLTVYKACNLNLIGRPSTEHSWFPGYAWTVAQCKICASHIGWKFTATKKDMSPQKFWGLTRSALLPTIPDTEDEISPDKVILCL
# Jurkat cells = assay: SynFinger library screen: CD69 expression of CRASH-IT (Zap70-PD1-degron) transduced Jurkat cells with or without lenalidomide, enrichment index from NGS reads; format: cell-based; conditions: Jurkat cells expressing CRASH-IT switch, 50 nM lenalidomide
# Text: […] Jurkat cells were transduced with the SynFinger library (SynFinger containing CRASH-IT switches) at a 12.8% transduction efficiency and sorted for high EGFP expression to enrich transduced cells. For quality control of the SynFinger transduced Jurkat cells, SynFinger sequences were amplified and analyzed by NGS. 10 randomly selected SynFinger encoding DNA sequences or DNA sequences encoding the same SynFinger amino acid sequences but contain 2 nucleotide mismatches due to alternative codon usage were used to assess ability to distinguish true SynFinger sequences from noise in the NGS data. 10/10 SynFinger encoding full-nucleotide sequence match sequences were observed within NGS data whereas the 2 nucleotide mismatch containing sequences were not detected.
# Jurkat cells expressing the SynFinger library were treated with 50 nM lenalidomide (a suboptimal dose that activates only ˜50% of cells expressing a CRASH-IT switch containing the parental double hybrid degron in Jurkat cells, as compared to a maximally effective 1000 nM lenalidomide dose) or were mock treated for 24 hours, and subsequently activated with anti-CD3/anti-CD28 antibodies in the presence or absence of 50 nM lenalidomide for 5 hours. Afterwards, cells were stained with IR dye (1:400) and anti-CD69-PE (1:200). Cells were sorted for live (IR dye negative), EGFP high end CD69 high (top 5%) or CD69 low (bottom 5%) expression using Aria Fusion cytometers.
# Subsequently, cells were washed with PBS, and cell pellets were frozen at −20° C. until DNA extraction. Genomic DNA was isolated using the DNeasy Blood & Tissue Kit (Qiagen) according to the manufacturer's instructions, using 5×10^6 cells per column. DNA was eluted in 22 μl RNAse free water. Deep sequencing adapters and indexes were added to SynFinger encoding DNA sequences using PCR amplification. Briefly, 3 μg genomic DNA (20 μl), indexed forward and reverse primers (10 μM, 2.5 μl each) and 25 μl NEBNext® High-Fidelity 2×PCR Master Mix were added to the PCR reaction. An optimized PCR reaction (98° C. for 30 s, (98° C. for 10 s, 56° C. for 10 s, 72° C. for 5 s)×25 cycles, 72° C. for 3 min was performed using Eppendorf PCR cyclers.
# Indexed PCR products were run on agarose gel, relative DNA concentrations were estimated by measuring band intensity, and 12 indexed PCR reaction products were mixed per MiSeq chip. To increase sequence diversity, samples were mixed with 25% PhiX DNA. In total, 2 MiSeq chips were used (100 bp, single read). To distinguish genuine SynFinger sequences from sequencing errors, results were filtered using a reference list of actual sequences used in SynFinger library design (100% codon match). Sequences with a very low number of reads (sum of all samples below 500 reads) were excluded from analysis.
# To identify SynFingers that improve sensitivity of CRASH-IT switches towards lenalidomide while preserving or improving stringency of switch mediated control of T cell activation in the absence of lenalidomide, an enrichment index (EI) value was calculated for each sequence as described below, and SynFingers were ranked according to their EI, with a low EI indicating a SynFinger with desired properties.
# CD69-HI and […] read counts from top 100 SynFingers were compared with read counts from the parental double hybrid degron using a two-sided Fisher's exact test to determine enrichment of CD69-HI cells in the presence of lenalidomide and enrichment of CD69-LO cells in the absence of lenalidomide.
# To further improve the sensitivity of double hybrid degron towards IMiDs, we performed a high throughput screen using a library of ˜50,200 CRASH-IT variants that encode either single or double amino acid substitutions at the indicated positions of the first hybrid zinc finger sequence, thereby changing 18 amino acids of this zinc finger into any amino acid except cysteine (FIG. 3). […]
Molecule,toxicity in maintenance therapy [1],sensitivity of the CRASH-IT switch towards thalidomide (Primary human T cells),sensitivity towards IMiD induced degradation [2],cells activated at 50 nM lenalidomide as compared to maximally effective 1000 nM lenalidomide dose (Jurkat cells) [%]
Nc1cccc2c1CN(C1CCC(=O)NC1=O)C2=O (centres unmarked) [lenalidomide],"dose reductions due to toxicity, in particular neutropenia, were frequent",–,–,–
"LQCEICGFTCRQKGNLLRHIKLH [single hybrid, single zinc finger degron, ZFP91 ZF4 beta hairpin-IKZF1 ZF2 alpha helix, no second zinc finger, reference compound]",–,reduced thalidomide sensitivity,increase sensitivity,–
"LQCEICGFTCRQKGNLLRHIKLHSGEKPFKCHLCNYACRRKDSVVAHKAKSH [double hybrid degron, ZFP91 ZF4 beta hairpin-IKZF1 ZF2 alpha helix plus IKZF1 ZF3 beta hairpin-ZFP91 ZF5 alpha helix]",–,improved the sensitivity,–,~50
